Measured values reported in patent US20250122155A1, “NOVEL INDOLE DERIVATIVE, PHARMACEUTICAL COMPOSITION COMPRISING SAME, AND USE THEREOF” (MITOIMMUNE THERAPEUTICS INC., priority 2021, published 2025).

Key:
[1] = system: H9C2 cells; experiment: Protective effect on heart cells against t-BHP (LDH release); format: cell-based; settings: H9C2, t-BHP 400 μM, 2 hours, read-out: EC50 (μM), Cell Protection Effect against t-BHP in Heart Cells
Summary of the method: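 H9C2 cells (1.5×10^4/well, cultured 24 h) were pretreated 15–20 min with compound at 0.01–30 μM final, then exposed 2 h to 400 μM t-BHP. LDH in supernatant was measured colorimetrically at 490 nm after 30 min room-temperature reaction; EC50 derived from protection.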

[2] = system: NIH/3T3 cells; experiment: Cell death protective effect in fibroblasts against Erastin, glutamate and RSL3 (LDH); format: cell-based, mouse; settings: 24 hours
Method: (§1) In order to identify the protective effect on fibroblasts, NIH/3T3 cells were divided into 96-well plates by 8×10^3 and cultured for 18 to 24 hours. The compounds of Examples were diluted to final concentrations of 0.1 and 1 μM, treated in each well, and incubated for 15 to 20 minutes. Erastin, glutamate, and RSL3 were treated to have final concentrations of 3 μM, 30 mM, and 3 μM, respectively, and cultured for 24 hours. In order to identify the protective effect of each compound, the degree of LDH extracellular secretion was measured using cytotoxicity LDH assay kit [Dojindo; CK12]. Briefly, at the time when the treatment of the cells with Erastin, glutamate, and RSL3 for 24 hours is completed, the supernatants containing the cells are taken by 70 μL and transferred to a new 96-well plate. The assay buffer included in the kit is added in an amount of 70 μL/well (the same amount as the sample) thereto, and then the plate is wrapped with a foil and the reaction is performed at room temperature for 15 minutes. After observing the changed color of the sample, the stop solution was added in an amount of 35 μL/well thereto, and then the 00 inhibition value was calculated by measuring the absorbance value at a wavelength of 490 nm using an iD3 spectrophotometer.

[3] = system: H9C2 cells; experiment: Cell death protective effect in cardiac myocytes against Erastin, glutamate and RSL3 (LDH); format: cell-based, rat; settings: 24 hours
Method: as §1, with “on cardiac cells, H9C2” for “on fibroblasts, NIH/3T3”, “by 1×10^4” for “by 8×10^3”, “of 1” for “of 3”, “μM, 25” for “μM, 30”, “and 0.5” for “and 3”, “minutes.” for “minutes. After observing the changed color of the sample, the stop solution was added in an amount of 35 μL/well thereto, and then the 00 inhibition value was calculated by measuring the absorbance value at a wavelength of 490 nm using an iD3 spectrophotometer.”

[4] = system: NRK-49F cells; experiment: Cell death protective effect in renal fibroblasts against Erastin, glutamate and RSL3 (LDH); format: cell-based, rat; settings: 24 hours
Method: In order to identify the protective effect on renal fibroblasts, NRK-49F cells were divided into 96-well plates by 1×10^4 and cultured for 18 to 24 hours. The compounds of Examples were diluted to final concentrations of 0.1 and 1 μM, treated in each well, and incubated for 15 to 20 minutes. Erastin, glutamate, and RSL3 were treated to have final concentrations of 3 μM, 75 mM, and 3 μM, respectively, and cultured for 24 hours. In order to identify the protective effect of each compound, the degree of LDH extracellular secretion was measured using cytotoxicity LDH assay kit [Dojindo; CK12]. Briefly, at the time when the treatment of the cells with Erastin, glutamate, and RSL3 for 24 hours is completed, the supernatants containing the cells are taken by 70 μl and transferred to a new 96-well plate. The assay buffer included in the kit is added in an amount of 70 μL/well (the same amount as the sample) thereto, and then the plate is wrapped with a foil and the reaction is performed at room temperature for 15 minutes.

[5] = system: MLE-12 cells; experiment: Cell death protective effect in lung epithelial cells against RSL3 (LDH); format: cell-based, rat; settings: MLE-12, RSL3 1.0 μM, 24 hours
Method: In order to identify the protective effect on lung epithelial cells, MLE-12 cells were divided into 96-well plates by 5×10^3 and cultured for 18 to 24 hours. The compounds of Examples were diluted to final concentrations of 0.1 and 1.0 μM, treated in each well, and incubated for 20 minutes. RSL3 was treated to have final concentrations of 1.0 μM, respectively, and cultured for 24 hours. In order to identify the protective effect of each compound, the degree of LDH extracellular secretion was measured using cytotoxicity LDH assay kit [Dojindo; CK12]. Briefly, at the time when the treatment of the cells with RSL3 for 24 hours is completed, the supernatants containing the cells are taken by 70 μL and transferred to a new 96-well plate. The assay buffer included in the kit is added in an amount of 70 μL/well (the same amount as the sample) thereto, and then the plate is wrapped with a foil and the reaction is performed at room temperature for 15 minutes.

[6] = NIH/3T3, Erastin 3 μM, compound 0.1 μM
[7] = NIH/3T3, Erastin 3 μM, compound 1.0 μM
[8] = NIH/3T3, Glutamate 30 mM, compound 0.1 μM
[9] = NIH/3T3, Glutamate 30 mM, compound 1.0 μM
[10] = NIH/3T3, RSL3 3 μM, compound 0.1 μM
[11] = NIH/3T3, RSL3 3 μM, compound 1.0 μM
[12] = H9C2, Erastin 1 μM, compound 0.1 μM
[13] = H9C2, Erastin 1 μM, compound 1.0 μM
[14] = H9C2, Glutamate 25 mM, compound 0.1 μM
[15] = H9C2, Glutamate 25 mM, compound 1.0 μM
[16] = H9C2, RSL3 0.5 μM, compound 0.1 μM
[17] = H9C2, RSL3 0.5 μM, compound 1.0 μM
[18] = Glutamate 75 mM, compound 0.1 μM
[19] = Glutamate 75 mM, compound 1.0 μM

For CCOCCOCc1cc(NC2CCCC2)c2[nH]c(-c3ccccc3)cc2c1 [Example 36, N-cyclopentyl-5-(2-ethoxyethoxymethyl)-2-phenyl-1H-indol-7-amine], the EC50 [1] was no more than 0.3 µM, the “inhibition (%)” value [2, 6] was 99% and the “inhibition (%)” value [2, 7] was 100%. For the same molecule, the “inhibition (%)” value [2, 8] was 100%, the “inhibition (%)” value [2, 9] was 100% and the “inhibition (%)” value [2, 10] was 100%. The “inhibition (%)” value [2, 11] was 100%, the “inhibition (%)” value [3, 12] was 100% and the “inhibition (%)” value [3, 13] was 100%. The “inhibition (%)” value [3, 14] was 99%, the “inhibition (%)” value [3, 15] was 97% and the “inhibition (%)” value [3, 16] was 98%. The “inhibition (%)” value [3, 17] was 99%, the “inhibition (%)” value ([4]; Erastin 3 μM, compound 0.1 μM) was 99% and the “inhibition (%)” value ([4]; Erastin 3 μM, compound 1.0 μM) was 99%. For the same molecule, the “inhibition (%)” value [4, 18] was 100%, the “inhibition (%)” value [4, 19] was 100% and the “inhibition (%)” value ([4]; RSL3 3 μM, compound 0.1 μM) was 98%. The “inhibition (%)” value ([4]; RSL3 3 μM, compound 1.0 μM) was 99%, the “inhibition (%)” value ([5]; compound 0.1 μM) was 89% and the “inhibition (%)” value ([5]; compound 1.0 μM) was 94%.

For COCCOCCOCc1cc(NC2CCCC2)c2[nH]c(-c3ccccc3)cc2c1 [Example 39, N-cyclopentyl-5-[2-(2-methoxyethoxy)ethoxymethyl]-2-phenyl-1H-indol-7-amine], the EC50 [1] was no more than 0.3 µM, the “inhibition (%)” value [2, 6] was 99% and the “inhibition (%)” value [2, 7] was 100%. For the same molecule, the “inhibition (%)” value [2, 8] was 99%, the “inhibition (%)” value [2, 9] was 100% and the “inhibition (%)” value [2, 10] was 100%. The “inhibition (%)” value [2, 11] was 100%, the “inhibition (%)” value [3, 12] was 100% and the “inhibition (%)” value [3, 13] was 100%. The “inhibition (%)” value [3, 14] was 96%, the “inhibition (%)” value [3, 15] was 96% and the “inhibition (%)” value [3, 16] was 96%. For the same molecule, the “inhibition (%)” value [3, 17] was 96%, the “inhibition (%)” value ([4]; Erastin 3 μM, compound 0.1 μM) was 99% and the “inhibition (%)” value ([4]; Erastin 3 μM, compound 1.0 μM) was 98%. The “inhibition (%)” value [4, 18] was 100%, the “inhibition (%)” value [4, 19] was 100% and the “inhibition (%)” value ([4]; RSL3 3 μM, compound 0.1 μM) was 98%. For the same molecule, the “inhibition (%)” value ([4]; RSL3 3 μM, compound 1.0 μM) was 99%, the “inhibition (%)” value ([5]; compound 0.1 μM) was 89% and the “inhibition (%)” value ([5]; compound 1.0 μM) was 89%.

For COCCOCc1cc(NCc2ccncc2)c2[nH]c(-c3ccccc3)cc2c1 [Example 45, 5-(2-methoxyethoxymethyl)-2-phenyl-N-(4-pyridylmethyl)-1H-indol-7-amine], the EC50 [1] was no more than 0.3 µM, the “inhibition (%)” value [2, 6] was 100% and the “inhibition (%)” value [2, 7] was 100%. For the same molecule, the “inhibition (%)” value [2, 8] was 0%, the “inhibition (%)” value [2, 9] was 97% and the “inhibition (%)” value [2, 10] was 0%. For the same molecule, the “inhibition (%)” value [2, 11] was 100%, the “inhibition (%)” value [3, 12] was 100% and the “inhibition (%)” value [3, 13] was 100%. For the same molecule, the “inhibition (%)” value [3, 14] was 98%, the “inhibition (%)” value [3, 15] was 96% and the “inhibition (%)” value [3, 16] was 99%. The “inhibition (%)” value [3, 17] was 97%, the “inhibition (%)” value ([4]; Erastin 3 μM, compound 0.1 μM) was 99% and the “inhibition (%)” value ([4]; Erastin 3 μM, compound 1.0 μM) was 98%. The “inhibition (%)” value [4, 18] was 100%, the “inhibition (%)” value [4, 19] was 98% and the “inhibition (%)” value ([4]; RSL3 3 μM, compound 0.1 μM) was 99%. For the same molecule, the “inhibition (%)” value ([4]; RSL3 3 μM, compound 1.0 μM) was 98%, the “inhibition (%)” value ([5]; compound 0.1 μM) was 98% and the “inhibition (%)” value ([5]; compound 1.0 μM) was 100%.

For COCCOCc1cc(NC2CCOCC2)c2[nH]cc(C)c2c1 [Example 50, 5-(2-methoxyethoxymethyl)-3-methyl-N-tetrahydropyran-4-yl-1H-indol-7-amine], the EC50 [1] was greater than 1 µM, the “inhibition (%)” value [2, 6] was 0% and the “inhibition (%)” value [2, 7] was 8%. For the same molecule, the “inhibition (%)” value [2, 8] was 99%, the “inhibition (%)” value [2, 9] was 100% and the “inhibition (%)” value [2, 10] was 100%. The “inhibition (%)” value [2, 11] was 100%, the “inhibition (%)” value [3, 12] was 16% and the “inhibition (%)” value [3, 13] was 18%. For the same molecule, the “inhibition (%)” value [3, 14] was 0%, the “inhibition (%)” value [3, 15] was 49% and the “inhibition (%)” value [3, 16] was 7%. The “inhibition (%)” value [3, 17] was 4%, the “inhibition (%)” value ([4]; Erastin 3 μM, compound 0.1 μM) was 3% and the “inhibition (%)” value ([4]; Erastin 3 μM, compound 1.0 μM) was 99%. For the same molecule, the “inhibition (%)” value [4, 18] was 4%, the “inhibition (%)” value [4, 19] was 73% and the “inhibition (%)” value ([4]; RSL3 3 μM, compound 0.1 μM) was 16%. The “inhibition (%)” value ([4]; RSL3 3 μM, compound 1.0 μM) was 18%, the “inhibition (%)” value ([5]; compound 0.1 μM) was 0% and the “inhibition (%)” value ([5]; compound 1.0 μM) was 56%.

In the case of COCCOCc1cc(NC2CCNCC2)c2[nH]c(-c3ccccc3)cc2c1 [Example 64, 5-((2-methoxyethoxy)methyl)-2-phenyl-N-(piperidin-4-yl)-1H-indol-7-amine], the EC50 [1] is reported as no more than 0.3 µM, the “inhibition (%)” value [2, 6] is reported as 99% and the “inhibition (%)” value [2, 7] is reported as 100%. The “inhibition (%)” value [2, 8] was 99%, the “inhibition (%)” value [2, 9] was 100% and the “inhibition (%)” value [2, 10] was 100%. The “inhibition (%)” value [2, 11] was 100%, the “inhibition (%)” value [3, 12] was 100% and the “inhibition (%)” value [3, 13] was 100%. For the same molecule, the “inhibition (%)” value [3, 14] was 97%, the “inhibition (%)” value [3, 15] was 97% and the “inhibition (%)” value [3, 16] was 90%. The “inhibition (%)” value [3, 17] was 95%, the “inhibition (%)” value ([4]; Erastin 3 μM, compound 0.1 μM) was 100% and the “inhibition (%)” value ([4]; Erastin 3 μM, compound 1.0 μM) was 100%. The “inhibition (%)” value [4, 18] was 7%, the “inhibition (%)” value [4, 19] was 99% and the “inhibition (%)” value ([4]; RSL3 3 μM, compound 0.1 μM) was 70%. The “inhibition (%)” value ([4]; RSL3 3 μM, compound 1.0 μM) was 100%, the “inhibition (%)” value ([5]; compound 0.1 μM) was 100% and the “inhibition (%)” value ([5]; compound 1.0 μM) was 98%.
